Source: PMC10863309 (Redox Biology, 2024)
Several values for one entry are separate records, joined by “and”; a condition that tells them apart may be missing. Identical values can stand only once. Like-named read-outs stand apart in the source and are kept apart here.

Assays:
[1] = test system: LPS-induced NO release of BV2 microglial cells; assay: Nitrite quantification; type: cell-based, mouse; conditions: 1 h pretreatment, LPS 800 ng/ml 24 h
[2] = test system: BV2 cells; assay: MTT cell viability assay; type: cell-based, mouse
[3] = Mus musculus, BV-2, read-out: Cell viability IC50

Row | Molecule | NO Inhibition (% of LPS) LPS/drugs (0.7 μM) [1] | NO Inhibition (% of LPS) LPS/drugs (1.5 μM) [1] | NO Inhibition (% of LPS) LPS/drugs (3 μM) ([1]; 3 μM) | IC50 [2, 3] | NO Inhibition (% of LPS) LPS/drugs (12 μM) ([1]; 12 μM) | NO Inhibition (% of LPS) LPS/drugs (25 μM) ([1]; 25 μM) | NO Inhibition (% of LPS) LPS/drugs (50 μM) ([1]; 50 μM) | IC50 ([2]; read-out: Cell viability IC50, BV2 microglial cells)
1 | CC[C@]12C=CCN3CC[C@]4(C(=C(C(=O)OC)C1)Nc1ccccc14)[C@@H]32 [Compound 7, tabersonine] | 18.8 ± 7.0 % of LPS | 29.3 ± 3.1 % of LPS | 45.9 ± 2.4 % of LPS | 16.1 ± 1.1 µM | – | – | – | –
2 | C[C@@H]1C[C@H]2[C@@H]3CCC4=CC(=O)C=C[C@]4(C)[C@@]3(F)[C@@H](O)C[C@]2(C)[C@@]1(O)C(=O)CO [Dexamethasone, reference compound] | – | – | – | > 100 µM | 61.9 ± 4.7 % of LPS | 71.1 % of LPS and 71.1 ± 3.0 % of LPS | 75.1 ± 1.9 % of LPS | –
3 | lochnericine [Compound 2] | 11.2 ± 2.0 % of LPS | 31.3 ± 3.2 % of LPS | – | – | – | – | – | 28.7 ± 1.2 µM
